Results reported in US12037375B2, “Protein variant and composition for treating neurodegenerative disease using the same” (KOREA UNIVERSITY RESEARCH AND BUSINESS FOUNDATION, priority 2021, dated 2024).

Test system: SH-SY-5Y neuroblastoma cells
Test: Cell viability by MTT assay
Assay type: cell-based
Settings: FIG. 4
Description: SH-SY-5Y neuroblastoma cells were purchased from the Korean Cell Line Bank (Seoul, South Korea) and incubated in a 1:1 mixture of Dulbecco's modified eagle medium/F-12 nutrient mixture ham (DMEM/F-12; WelGENE) supplemented with 10% fetal bovine serum (FBS; Capricorn Scientific GmbH, Ebsdorfergrund, Germany) and 1% antibiotic (10,000 U/mL penicillin G, 10,000 μg/mL streptomycin and 25 μg/mL amphotericin B; Hyclone, Logan, UT, USA). The antibiotic was sterilized through a 0.2 μm filter before use and the cells were incubated at 37° C. under humid conditions including 5% CO2.
Specifically, 15,000 cells were grown in each well of a 96-well plate and incubated for 24 hours. […] Then, the MTT solution was added to the medium and incubated at 37° C. for 3 hours to form the MTT-formazan product. The amount of the product was quantified as the extent of absorption at a wavelength of 540 nm.
Each test was conducted on three samples at a time and the entire test was repeated three times to ensure reproducibility.
Specifically, 15,000 cultured neuroblastoma were added with each of 1 uM of a monomer protein and 1 uM of a fibrous protein, and incubated for 2 days, and then the change in cytotoxicity was measured using MTT reagent.

With `CC[C@H](C)[C@H](NC(=O)[C@H](C)NC(=O)CNC(=O)[C@H](CCCCN)NC(=O)[C@H](CC(N)=O)NC(=O)[C@H](CO)NC(=O)CNC(=O)[C@@H](NC(=O)[C@H](CC(=O)O)NC(=O)[C@H](CCC(=O)O)NC(=O)[C@H](C)NC(=O)[C@H](Cc1ccccc1)NC(=O)[C@H](CC(N)=O)NC(=O)[C@@H](NC(=O)[C@H](CC(C)C)NC(=O)[C@H](CCCCN)NC(=O)[C@H](CCC(N)=O)NC(=O)[C@H](Cc1c[nH]cn1)NC(=O)[C@H](Cc1c[nH]cn1)NC(=O)[C@@H](NC(=O)[C@H](CCC(=O)O)NC(=O)[C@H](Cc1ccc(O)cc1)NC(=O)CNC(=O)[C@H](CO)NC(=O)[C@H](CC(=O)O)NC(=O)[C@H](Cc1c[nH]cn1)NC(=O)[C@H](CCCNC(=N)N)NC(=O)[C@H](Cc1ccccc1)NC(=O)[C@H](CCC(=O)O)NC(=O)[C@H](C)NC(=O)[C@@H](N)CC(=O)O)C(C)C)C(C)C)C(C)C)C(=O)N[C@@H](CC(N)=O)C(=O)NCC(=O)N[C@@H](CC(N)=O)C(=O)N[C@@H](CCSC)C(=O)N[C@H](C(=O)NCC(=O)NCC(=O)N[C@H](C(=O)N[C@H](C(=O)N[C@H](C(=O)N[C@@H](CC(N)=O)C(=O)O)[C@@H](C)CC)C(C)C)C(C)C)C(C)C` the cytotoxicity was “reduced cytotoxicity”.
